Data as given in ChEMBL document CHEMBL6177981, “Bardoxolone Derivatives as Novel Pseudo-Natural Necroptosis Inhibitors by Destabilizing HSP90 Client Proteins” (J Med Chem, 2025).
pEC50: −log10 of the molar value. Calls of active or inactive are those of the source. No cut-off for these calls is given here.

What was measured:
[1] = test system: Mus musculus; assay: (§1) Anti-necroptotic activity in TNFalpha/Z-VAD-FMK induced SIRS male C57BL/6J mouse model assessed as reduction in IL6 in intestine at 5 to 10 mg/kg, po pre-administered with compound via gavage for 2 hrs followed by […] of Z-VAD-FMK stimulation for 15 mins with subsequent TNF-alpha stimulation for 1 hrs and re-current […] of Z-VAD-FMK stimulation and measured after 8 hrs post SIRS induction by ELISA; type: functional, organism-based; details: dose 5-10 mg/kg, time 10.0 hrs
[2] = test system: HT-29; assay: Upregulation of HSP70 protein level in TSZ-induced human HT-29 cells at 0.625 to 10 uM preincubated with compound followed by Z-VAD-FMK, SM164 and TNFalpha stimulation and measured after 6 hrs by Western blot analysis; type: functional, cell-based; details: dose 0.625-10 µM
[3] = target: T1, Heat shock protein HSP90 (Homo sapiens) (UniProt P07900+P08238); assay: Inhibition of HSP90 in TSZ-induced human HT-29 cells assessed as reduction in EGFR protein level at 10 uM preincubated with compound followed by Z-VAD-FMK, SM164 and TNFalpha stimulation and measured after 6 hrs by Western blot analysis; type: cell-based
[4] = test system: Mus musculus; assay: as §1, with “survival rate” for “reduction in IL6 in intestine”, “5” for “5 to 10”, “relative to control” for “by ELISA”; type: functional; details: time 10 hrs
[5] = test system: HeLa; assay: Inhibition of MLKL protein expression in RIPK3-deficient human HeLa cells at 6 uM preincubated with MG132 for 2 hrs followed by compound addition and measured after 9 hrs by Western blot analysis; type: functional, cell-based
[6] = Acute toxicity in male C57BL/6J mouse assessed as structural changes in stomach at 2 g/Kg, IG measured after 72 hrs by H and E staining based analysis; type: tissue-based; details: in vivo, po, 2000 mg/kg
[7] = test system: RAW264.7; assay: Anti-necroptotic activity in LZ-induced mouse RAW264.7 cells assessed as increase in cell viability at 5 to 10 uM preincubated with compound followed by LPS and Z-VAD-FMK stimulation and measured after 16 hrs by CellTiter-Lumi luminescent cell viability assay; type: functional, cell-based; details: dose 5-10 µM
[8] = Acute toxicity in male C57BL/6J mouse assessed as hemorrhage in lung at 2 g/Kg, IG measured after 72 hrs by H and E staining based analysis; type: tissue-based; details: in vivo, po, 2000 mg/kg
[9] = test system: HT-29; assay: Anti-necroptotic activity in TSZ-induced human HT-29 cells assessed as increase in cell viability preincubated with Z-VAD-FMK and SM164 for 30 mins followed by TNFalpha stimulation for 12 hrs and measured after compound addition by CellTiter-Lumi luminescent cell viability assay; type: functional, cell-based
[10] = test system: Mus musculus; assay: as §1, with “as protection from death” for “as reduction in IL6 in intestine”, “at 2.5” for “at 5”, “induction” for “induction by ELISA”; type: functional, organism-based; details: dose 2.5-10 mg/kg, time 10.0 hrs
[11] = test system: HeLa; assay: Inhibition of MLKL protein expression in RIPK3-deficient human HeLa cells at 6 uM preincubated with NH4Cl for 2 hrs followed by compound addition and measured after 9 hrs by Western blot analysis; type: functional, cell-based
[12] = target: T1, Heat shock protein HSP90 (Homo sapiens); assay: Inhibition of HSP90 in TSZ-induced human HT-29 cells assessed as reduction in EGFR protein level preincubated with compound followed by Z-VAD-FMK, SM164 and TNFalpha stimulation and measured after 6 hrs by Western blot analysis; type: cell-based; details: dose 0.625-10 µM
[13] = Acute toxicity in male C57BL/6J mouse assessed as inflammatory cell infiltration in brain at 2 g/Kg, IG measured after 72 hrs by H and E staining based analysis; type: tissue-based; details: in vivo, po, 2000 mg/kg
[14] = test system: Mus musculus; assay: as §1, with “brain” for “intestine”; type: functional, organism-based; details: dose 5-10 mg/kg, time 10.0 hrs
[15] = test system: L929; assay: Anti-necroptotic activity in TZ-induced mouse L929 cells assessed as increase in cell survival at 10 uM measured after 12 hrs by Live-cell super-resolution panoramic microscopic analysis; type: functional, cell-based
[16] = test system: HT-29; assay: Upregulation of HSP70 expression in human HT-29 cells at 1.5 uM incubated for 9 hrs by Western blot analysis; type: functional, cell-based
[17] = test system: Mus musculus; assay: as §1, with “IL-1beta” for “IL6”, “serum” for “intestine at 5 to 10 mg/kg, po”, “pre-administered orally” for “pre-administered”; type: functional, organism-based; details: dose 2.5-10 mg/kg, route po, time 10.0 hrs
[18] = Cmax in Sprague-Dawley rat at 2 mg/kg, iv measured after 24 hrs by LC-MS/MS analysis; type: ADME, organism-based; details: in vivo
[19] = test system: HeLa; assay: Inhibition of RIPK1 protein expression in RIPK3-deficient human HeLa cells at 6 uM preincubated with MG132 for 2 hrs followed by compound addition and measured after 9 hrs by Western blot analysis; type: functional, cell-based
[20] = test system: Mus musculus; assay: as §1, with “IL-1beta” for “IL6”; type: functional, organism-based; details: dose 5-10 mg/kg, time 10.0 hrs
[21] = test system: HT-29; assay: Anti-necroptotic activity in TSZ-induced human HT-29 cells assessed as increase in cell viability at 2.5 uM preincubated with compound followed by Z-VAD-FMK, SM164 and TNFalpha addition and measured after 12 hrs by CellTiter-Lumi luminescent cell viability assay relative to control; type: functional
[22] = test system: HT-29; assay: Downregulation of RIPK3 protein level in human HT-29 cells at 6 uM preincubated with MG132 for 2 hrs followed by compound addition and measured after 9 hrs by Western blot analysis; type: functional, cell-based
[23] = test system: HT-29; assay: Anti-necroptotic activity in TSZ-induced human HT-29 cells assessed as cell survival at 10 uM measured after 12 hrs by Live-cell super-resolution panoramic microscopic analysis (reference value: 8 hrs); type: functional
[24] = Acute toxicity in male C57BL/6J mouse assessed as structural changes in heart at 2 g/Kg, IG measured after 72 hrs by H and E staining based analysis; type: tissue-based; details: in vivo, po, 2000 mg/kg
[25] = Acute toxicity in male C57BL/6J mouse assessed as structural changes in liver at 2 g/Kg, IG measured after 72 hrs by H and E staining based analysis; type: tissue-based; details: in vivo, po, 2000 mg/kg
[26] = test system: HT-29; assay: Upregulation of HSP70 protein level in TSZ-induced human HT-29 cells at 10 uM preincubated with compound followed by Z-VAD-FMK, SM164 and TNFalpha stimulation and measured after 6 hrs by Western blot analysis; type: functional, cell-based
[27] = test system: HT-29; assay: Effect on RIPK3 protein level in human HT-29 cell precipitate at 6 uM measured after 9 hrs by Western blot analysis; type: functional, cell-based
[28] = test system: Mus musculus; assay: as §1, with “IL-1beta” for “IL6”, “lung” for “intestine”; type: functional, organism-based; details: dose 5-10 mg/kg, time 10.0 hrs
[29] = test system: Mus musculus; assay: as §1, with “heart” for “intestine”; type: functional, organism-based; details: dose 5-10 mg/kg, time 10.0 hrs

Cn1ccc(-c2ccc(NC(=O)[C@]34CCC(C)(C)C[C@H]3[C@H]3C(=O)C=C5[C@@]6(C)C=C(C#N)C(=O)C(C)(C)[C@@H]6CC[C@@]5(C)[C@]3(C)CC4)cc2)n1
Activity [1]: Active | Activity [2]: inactive | inhibition [3]: Active | survival at 5 mg/kg [4]: 58% | inhibition [5]: Active | Activity [6]: Non-toxic | Activity [7]: Active; Much Better Activity Observed | Activity [8]: Non-toxic | pEC50 [9]: 5.86 | Activity [10]: Active | inhibition [11]: Active | inhibition [12]: Dose-dependent-effect | Activity [13]: Non-toxic | Activity [14]: Active | Activity [15]: Active | Activity [16]: Active | Activity [17]: Dose-dependent-effect | Cmax [18]: 1040 ng/mL | inhibition [19]: Active | Activity [20]: Active | Activity [21]: 100% | Activity [22]: Active | Survival [23]: 9 h | Activity [24]: Non-toxic | Activity [25]: Non-toxic | Activity [26]: inactive | Activity [27]: inactive | Activity [28]: Active | Activity [29]: Active
